Measured values taken from patent publication US20110070211A1 (priority 2009, published 2011).

System: DU-145 cells
Type: cell-based, Human

C=C1[C@@H](C)[C@H]2[C@H](Cc3ccccc3)NC(=O)[C@]23[C@H](OC(C)=O)/C=C/[C@@](C)(O)C(=O)[C@@H](C)C/C=C/[C@H]3[C@@H]1O [Cytochalasin-D]
Effect on cell migration: did not migrate
Relative Wound Density at 24 Hours, Mean: 3.3 ± 0.2
Relative Wound Density at 24 Hours, Percent Relative to Media: 4%
